“Also recorded” adds a separate entry of the source. No end group written: not given here. Cy3 = Cy3 fluorescent dye label
How the values were obtained:
[1] = test system: TLR9 signaling; test: ODN 1668-induced cytokine mRNA expression in BMDM (quantitative real time PCR); type: cell-based, mouse; settings: BMDM; for inhibition of TLR9 signaling (ODN 1668-induced cytokine mRNA, overall): peptide 10, 20 or 40 μM, ODN 1668 1 μM; for TNFα mRNA expression / IL-12-p40 mRNA expression / IL-10 mRNA expression: peptide 10, 20 or 40 μM 30 min before ODN 1668 (1 μM), normalized to HPRT; for TNFα mRNA expression: 1 hour after stimulation; for IL-12-p40 mRNA expression / IL-10 mRNA expression: 1 hour
Description: The cDNA obtained was amplified with gene-specific primers for mouse HPRT, TNFα, IL-10, IL-12-p40, or IL-6 and Fast SYBR Green™ master mix (Applied Biosystemsm) as previously described.
Mouse BMDMs were incubated in the presence of a 10, 20 or 40 μM decoy peptide for 30 minutes prior to stimulation with ODN 1668 (1 μM). […] Data represent the means±SEM of at least three independent experiments. The statistical significance of changes in cytokine mRNA was determined by a one-way ANOVA test; *p<0.001. Peptides 9R3 and 9R34 have overlapping sequences (see Table 1).
To investigate inhibition of TLR9 signaling by 9R34 analogues, the following work was performed. Mouse BMDMs were incubated in the presence of a 10, 20 or 40 μM decoy peptide for 30 minutes prior to stimulation with ODN 1668 (1 μM). Cytokine mRNA expression was measured 1 hour after ODN 1668 challenge and normalized to the expression of HPRT. See also Table 1. Data represent means±SEM of at least three independent experiments.

[2] = test system: TLR9 signaling; test: ODN 1668-induced cytokine secretion in BMDM supernatants (ELISA); type: cell-based, mouse; settings: peptide 40 μM; 5 hour supernatants; ODN 1668 1 μM
Description: Mouse TNFα and IL-12-p40 concentrations were measured in supernatants using ELISA kits from Biolegend™, Inc.
BMDMs were incubated in the presence of a decoy peptide for 30 minutes prior to stimulation with ODN 1668 (1 μM). The statistical significance of changes in cytokine levels was determined by the one-way ANOVA test; *p<0.01.

[3] = test system: myDDosome; settings: BMDM pretreated with CPDP; MyD88 IP, IRAK4 blot
Description: Four million BMDMs per well were plated in 6-well plates and treated with CPDP for 30 minutes prior to stimulation with ODN 1668 for 90 minutes. Cells were lysed in 600 p L of buffer containing 20 mM HEPES (pH 7.4), 150 mM NaCl, 10 mM NaF, 2 mM Na3VO4, 1 mM EDTA, 1 mM EGTA, 0.5% Triton X-100, 0.1 mM DTT, and protease inhibitor cocktail (Roche™). Cell extracts were incubated overnight with 1 μg of anti-mouse MyD88 antibody (AF3109) (R&D Systems™, followed by a 4-hour incubation with 20 μL protein G Sepharose beads (ThermoFisherm Scientific). The beads were then washed 3 times with 500 μL of lysis buffer and boiled in 60 μL of Laemmli sample buffer (Bio-Rad™). Cell extracts were electrophoresed on 10% acrylamide gel by SDS-PAGE and transferred to PVDF membrane (Bio-Rad™). Rabbit anti-MyD88 IgG was purchased from Cell Signaling™. Mouse anti-IRAK4 IgG was obtained from Abcam™. Alkaline phosphatase-conjugated secondary antibodies against mouse and rabbit IgG were purchased from Cell Signaling™. The stabilized substrate for alkaline phosphatase was from Promega™.
TLR stimulation causes formation of myDDosome, a signaling complex composed through interactions of IRAK and MyD88 death domains. To test if peptides inhibit myDDosome formation, MyD88 was immunoprecipitated from lysates of ODN-stimulated BMDM and the precipitates analyzed for IRAK4 presence. BMDM were lysed and lysates immunoprecipitated with anti-MyD88 Ab and immune complexes assessed with anti-IRAK4 Ab 3 hours after cell treatment with ODN 1668.

[4] = test system: TLR9 signaling; test: Plasma cytokines after i.p. ODN 1668 in mice; type: in vivo, C57BL/6J mice; settings: peptide 200 nmol/mouse i.p.; ODN 1668 7.86 nmol/mouse
Description: Systemic cytokine levels were measured in plasma samples obtained 1, 3, and 5 hours after intraperitoneal (i.p.) administration of 7.86 nmol (50 μg) of ODN 1668 or 67 nmol of Pam3C per mouse, using ELISA kits from Biolegend™ Inc. CPDP were dissolved in PBS and administered i.p. at the dose of 200 nmol per mouse 1 hour before administration of a TLR agonist. For survival experiments, mice were sensitized to TLR9 agonists by i.p. injection of 20 mg of D-Gal 30 minutes before administration of peptides or PBS. ODN 1668 was used at the doses of 3.93 or 7.86 nmol/mouse (25 or 50 μg/mouse) 1.5 hours after D-Gal. Animal survival was monitored for 50 hours. All agents were administered i.p. in 500 μL volume of PBS. Animals had free access to food and water during the observation period. All animal experiments were conducted in accordance with the national guidelines for the care and use of laboratory animals under a protocol that was approved by the UMB IACUC.
To test the in vivo efficacy and specificity of 9R34-ΔN, C57BL/6J mice were mock-treated or treated i.p. with a single dose of inhibitory or control peptide (200 nmol/mouse) and challenged with TLR9 agonist ODN 1668 (7.86 nmol/mouse) or TLR2/1 agonist Pam3C (67 nmol/mouse) 1 hour later. Plasma concentrations of TNFα and IL-12-p40 were measured 1, 3, and 5 hours after the challenge. Both TLR agonists increased concentrations of TNFα and IL-12-p40 in 1 hour samples from below the limit of detection to about 1.2 and about 6 ng/mL in the case of ODN 1668, and to 0.12 ng/mL and 1 ng/mL after treatment with Pam3C.
Plasma TNFα and IL-12-p40 levels following intraperitioneal administration of ODN 1668 to C57Bl/6J mice in peptide-pretreated and control mice are shown in FIG. 14A and FIG. 14B. Data shown in these figures represent the means±SEM obtained in at least three independent experiments. The statistical significance of changes in cytokine concentrations was determined by a two-way ANOVA test; *p<0.001.

[5] = target: T1, MyD88 TIR (Homo sapiens, UniProt Q99836); test: FLIM/FRET binding of Cy3-labeled peptides to Cer-fused TIR in HeLa cells
T1 construct: expressed in transfected cells; host or cells: HeLa
T1 sequence (Q99836 159-293 limits assumed): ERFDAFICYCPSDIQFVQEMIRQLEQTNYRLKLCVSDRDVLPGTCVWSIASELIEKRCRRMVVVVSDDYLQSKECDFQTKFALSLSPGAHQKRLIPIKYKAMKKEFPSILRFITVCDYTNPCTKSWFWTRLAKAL
Description: (§1) Three million HeLa cells were transfected with 10 μg of MyD88-Cer, TIRAP-Cer, TRAM-Cer, TLR2-Cer, TLR4 TIR-Cer, or TLR9 TIR-Cer expression vectors using a Lipofectamine™ 3000 kit from Invitrogen™ per manufacturer recommendations. Twenty four hours later, the transfected cells were trypsinized and reseeded into a 50-well gasket (Grace Bio-Labs™) mounted on a microscope slide at the density 8000 cells/well. The next day, cells were treated with Cy3-9R34-ΔN or Cy3-9R11 for 1 hour and fixed on the slides with a 4% paraformaldehyde solution.
(§2) Fluorescence lifetime images were acquired using the Alba V FLIM™ system (ISS™ Inc.). The excitation was from the laser diode 443 nm coupled with scanning module (ISS™) through multiband dichroic filter 443/532/635 nm (Semrock™) to Olympus™ IX71S microscope with objective 20×0.45 NA (UPlan™ Olympus™). Emission was observed through bandpass filter […] (Chroma Technology™) and detected by a photomultiplier H7422-40 (Hamamatsu™). Measurements were performed using frequency domain (FD) and time domain (TD) modalities of the FLIM system. FD FLIM data were acquired using ISS™ A320 FastFLIM™ electronics with n harmonics of 20 MHz laser repetition frequency (n=1, 2, 3, 4, 5, 6). FastFLIM™ was calibrated using fluorescein in buffer pH 8.0 as a standard with a single lifetime of 4.0 ns. TD FLIM images were acquired using time-correlated single photon counting TCSPC™ Model SPC-830 (Becker & Hick™).
(§3) Images (256×256 pixels) were acquired with resolution varied in the range ˜0.4-0.7 μm/pixel, using scan speed 1 ms/pixel. To avoid pixel intensity saturation in bright cells and to improve the signal from dim cells, two to five overlapping scans were used for acquisition of FLIM images. Image sizes varied from 100×100 to 180×180 μm to accommodate multiple cells. FLIM data were analyzed with VistaVision™ Suite software (Vista™ v.212 from ISST). Fluorescence lifetime was determined using single- and bi-exponential intensity decay models. Average lifetime images were generated based on pixel-by-pixel analysis using the combined signal of two neighboring pixels in all directions (bin 2=25 pixels). The binning was used to improve the signal for analysis. The average lifetimes were calculated from fitted parameters, decay times τi and amplitudes αi, τa=Σαiτi. The bi-exponential fitting procedure was performed with one lifetime component fixed at 3.1 nsec, which was found common for most images. To calculate the effective FRET efficiency (E), average lifetimes of the donor only images (τD) and donor-acceptor images (τDA) were used, E=1−τDA/τD.
(§4) To identify potential binding partners of inhibitory peptides a FRET approach coupled with Fluorescence Lifetime Imaging Microscopy (FLIM) was used. HeLa cells were transiently transfected with an expression vector that encodes a TIR domain fused with Cerulean fluorescent protein (Cer). Cells were treated with various concentrations of a Cy3-labeled inhibitory peptide 48 hours after transfection. Cy3 is a suitable FRET acceptor for Cer fluorescence. A direct molecular interaction of a Cy3-labeled peptide with Cer-fused TIR domain should quench Cer fluorescence, leading to a decreased fluorescence lifetime.
(§5) TLR9, MyD88, and TIRAP were selected as potential primary binding partners for Cy3-9R34-ΔN and Cy3-9R11. Cer-fused TLR2 and TLR4 TIR domains, and Cer not fused to a TIR, were used as controls. […] Therefore, the TIRAP-Cer with Cy3-2R9 was used as a positive binding control. Binding of Cy3-labeled CPDPs to Cerulean- (Cer-) labeled TIR domains was tested as follows. Fluorescence Lifetime IMages (FLIM) were made of HeLa cells expressing Cer not fused with a TIR domain (upper row) or fused with TLR9 TIR or TIRAP TIR (middle and bottom rows) and treated with a Cy3-labeled decoy peptide for 1 hour.
(§6) A progressive shift of average fluorescence lifetime towards lower values observed with increasing peptide concentrations indicates the binding between donor and acceptor moieties. […]

[6] = target: T2, TIRAP TIR (Homo sapiens, UniProt P58753); test: as above; settings: HeLa cells, Cy3-peptide 2.5-40 μM, 1 hour
T2 construct: fused with TLR9 TIR or TIRAP TIR; expressed in transfected cells; host or cells: HeLa
T2 sequence (P58753 84-213 limits assumed): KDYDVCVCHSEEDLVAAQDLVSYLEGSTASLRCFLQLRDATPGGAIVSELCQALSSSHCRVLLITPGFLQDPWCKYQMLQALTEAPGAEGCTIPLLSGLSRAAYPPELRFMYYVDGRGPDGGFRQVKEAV
Description: as §1, §2, §3, §4, §5, §6

[7] = target: T3, TLR9 TIR (Homo sapiens, UniProt Q9NR96); test: as above; settings: HeLa cells, Cy3-peptide 2.5-40 μM, 1 hour, dose-dependent
T3 construct: expressed in transfected cells; host or cells: HeLa
T3 sequence (Q9NR96 868-1013 limits assumed): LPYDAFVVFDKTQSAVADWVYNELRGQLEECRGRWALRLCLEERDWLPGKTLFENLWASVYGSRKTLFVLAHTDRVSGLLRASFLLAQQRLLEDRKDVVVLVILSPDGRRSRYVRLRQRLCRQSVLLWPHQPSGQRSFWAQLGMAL
Description: as §1, §2, §3, §4, §5, §6

[8] = test system: Cer not fused to a TIR domain; test: FLIM/FRET control construct in HeLa cells; type: binding; settings: peptide 40 μM
Description: as §1, §2, §3, §5

For “GRWALRACLEERD (Synthetic peptide 9R34-delta-L1) [Peptide 9R34-ΔL1]”, the “inhibition of TLR9 signaling (ODN 1668-induced cytokine mRNA, overall)” value (“inhibition of TLR9 signaling” for short) [1] was “inhibited TLR9 signaling less potently”.
For HTDRVSGLLRASFL (Synthetic peptide 9R6), the “TNFα mRNA expression” value [1] was “partial activity”, the “IL-12-p40 mRNA expression” value [1] was “partial activity” and the “inhibition of TLR9 signaling” value [1] was “some inhibitory activity; also recorded: weakly inhibited”.
For SPDGRRSRYVR (Synthetic peptide 9R8), the “inhibition of TLR9 signaling” value [1] was “some inhibitory activity”.
With LEERDWLPGKTLFE (Synthetic peptide 9R4) the “inhibition of TLR9 signaling” value [1] was “did not inhibit”.
For “RGQLEECRGRWALR (also: antennapedia vector attached) [Peptide 9R3, tested as CPDP with antennapedia vector]”, the “TNFα mRNA expression” value [1] was “significantly suppressed”, the “IL-10 mRNA expression” value [1] was “significantly suppressed” and the “IL-12-p40 mRNA expression” value [1] was “significantly suppressed”. The “inhibition of TLR9 signaling” value [1] was “inhibit TLR9 signaling”.
For RYVRLRQRLCRQS (Synthetic peptide 9R9), the “TNFα mRNA expression” value [1] was “significantly suppressed”, the “IL-10 mRNA expression” value [1] was “significantly suppressed” and the “IL-12-p40 mRNA expression” value [1] was “significantly suppressed”. For the same substance, the “inhibition of TLR9 signaling” value [1] was “inhibit TLR9 signaling; also recorded: inhibited signaling weaker than 9R34 or 9R11”, the “production/secretion of TNFα” value [2] was “did not inhibit significantly” and the “secretion of IL-12-p40” value [2] was “reduced secretion”.
For “GRWALRLSLEERD (Synthetic peptide 9R34-C/S)”, the “inhibition of TLR9 signaling” value [1] was “as potent as the parent peptide”.
With DKTQSAVADWVYNE (Synthetic peptide 9R2) the “inhibition of TLR9 signaling” value [1] was “did not inhibit TLR9”, the “ODN 1668-induced myDDosome formation” value [3] was “not” and the “ODN 1668-induced plasma cytokine levels (TNFα, IL-12-p40)” value [4] was “did not significantly reduce”.
In the case of “GRWALRLCLE (Synthetic peptide 9R34-delta-C) [Peptide 9R34-ΔC]”, the “inhibition of TLR9 signaling” value [1] is reported as “as potent as the parent peptide”.
For “Cy3-9R11: Cy3-labeled 9R11 peptide, Cy3 label placed at the peptide N-terminus (Cy3-RQIKIWFQNRRMKWKKRSFWAQLGMALTRD)”, the “quenching of MyD88-Cer fluorescence lifetime” value [5] was “detectable, but less effective”, the “quenching of TIRAP-Cer fluorescence” value [6] was “induced FRET from TIRAP-Cer, but only when used at higher concentrations of 10 or 40 μM” and the “FRET efficiency, TLR9 TIR-Cer” value [7] was 3-27%. For the same substance, the “fluorescence lifetime of Cer not fused to a TIR domain (unspecific quenching)” value [8] was “Unspecific Cer quenching”.
For “GRWALRACAEERD (Synthetic peptide 9R34-delta-L2) [Peptide 9R34-ΔL2]”, the “inhibition of TLR9 signaling” value [1] was “inhibited TLR9 signaling less potently”.
